“And” between values parts separate entries of the source, which are not always exact repeats. Identical values can stand only once. Toxic doses and inconclusive results are not listed.
Test system: BDF1 mice, P388 leukemia ip, median survival T/C
Experiment: NCI In Vivo Anticancer Drug Screen. Data for tumor model P388 Leukemia (intraperitoneal) in B6D2F1 (BDF1) mice
Settings: endpoint: median survival time, higher = longer survival
Procedure, shortened: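 Read-out is survival of treated animals expressed relative to the vehicle group, as a T/C ratio.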

[1] = dose: 100.0 mg/kg/injection, schedule: Q04DX003 (ip), vehicle: saline sonified
[2] = dose: 200.0 mg/kg/injection, schedule: Q04DX003 (ip), vehicle: saline sonified
[3] = dose: 400.0 mg/kg/injection, schedule: Q04DX003 (ip), vehicle: saline sonified
[4] = dose: 100.0 mg/kg/injection, schedule: Q04DX003 (ip), vehicle: saline with Tween-80
[5] = dose: 200.0 mg/kg/injection, schedule: Q04DX003 (ip), vehicle: saline with Tween-80
[6] = dose: 400.0 mg/kg/injection, schedule: Q04DX003 (ip), vehicle: saline with Tween-80
[7] = dose: 100.0 mg/kg/injection, schedule: Q04DX003 (ip), vehicle: Klucel (hydroxypropylcellulose) (HPC)
[8] = dose: 200.0 mg/kg/injection, schedule: Q04DX003 (ip), vehicle: Klucel (hydroxypropylcellulose) (HPC)
[9] = dose: 400.0 mg/kg/injection, schedule: Q04DX003 (ip), vehicle: Klucel (hydroxypropylcellulose) (HPC)
[10] = dose: 100.0 mg/kg/injection, schedule: Q01DX009 (ip), vehicle: saline with Tween-80
[11] = dose: 200.0 mg/kg/injection, schedule: Q01DX009 (ip), vehicle: saline with Tween-80
[12] = dose: 50.0 mg/kg/injection, schedule: Q01DX001 (ip), vehicle: saline with Tween-80
[13] = dose: 100.0 mg/kg/injection, schedule: Q01DX001 (ip), vehicle: saline with Tween-80

## CCC12CCC(=O)NC1Cc1[nH]c3c(OC)cccc3c1C2 (stereo not drawn)
[1]
  T/C: 100 % of control
[2]
  T/C: 100 % of control
[3]
  T/C: 109 % of control

## O=[N+]([O-])c1cccnc1Oc1cccc(C(F)(F)F)c1
dose: 50.0 mg/kg/injection, schedule: Q01DX001 (ip), vehicle: other
  T/C: 100 % of control
dose: 100.0 mg/kg/injection, schedule: Q01DX001 (ip), vehicle: other
  T/C: 95 % of control
dose: 200.0 mg/kg/injection, schedule: Q01DX001 (ip), vehicle: other
  T/C: 86 % of control
dose: 400.0 mg/kg/injection, schedule: Q01DX001 (ip), vehicle: other
  T/C: 95 % of control

## Cc1ccc(NC(=O)COc2ccc(Cl)cc2Cl)cc1Cl
[4]
  T/C: 100 % of control
[5]
  T/C: 90 % of control
[6]
  T/C: 90 % of control

## c1ccc(CNCCOB(OCCNCc2ccccc2)OCCNCc2ccccc2)cc1
[7]
  T/C: 100 % of control
[8]
  T/C: 104 % of control
[9]
  T/C: 100 % of control

## CCOC(=O)CCN(CCCN(C)C)c1cc(O)c2c(c1O)C(=O)c1ccccc1C2=O
dose: 50.0 mg/kg/injection, schedule: Q01DX005 (ip), vehicle: saline with Tween-80
  T/C: 89 % of control
dose: 100.0 mg/kg/injection, schedule: Q01DX005 (ip), vehicle: saline with Tween-80
  T/C: 103 % of control
dose: 200.0 mg/kg/injection, schedule: Q01DX005 (ip), vehicle: saline with Tween-80
  T/C: 108 % of control

## C/C=C(/C)N(C(C)=O)N(C(C)=O)c1ccc([N+](=O)[O-])cc1[N+](=O)[O-]
dose: 100.0 mg/kg/injection, schedule: Q01DX001 (ip), vehicle: Klucel (hydroxypropylcellulose) (HPC)
  T/C: 109 % of control
[7]
  T/C: 90 % of control
dose: 200.0 mg/kg/injection, schedule: Q01DX001 (ip), vehicle: Klucel (hydroxypropylcellulose) (HPC)
  T/C: 100 % of control
[8]
  T/C: 104 % of control
dose: 400.0 mg/kg/injection, schedule: Q01DX001 (ip), vehicle: Klucel (hydroxypropylcellulose) (HPC)
  T/C: 109 % of control
[9]
  T/C: 95 % of control

## CCCCCCC(N)C(C)=O (stereo not drawn)
dose: 50.0 mg/kg/injection, schedule: Q01DX009 (ip), vehicle: saline
  T/C: 93 % of control
dose: 100.0 mg/kg/injection, schedule: Q01DX009 (ip), vehicle: saline
  T/C: 95 % of control

## C[N+](C)(CCc1ccccc1)CC(O)COc1ccccc1 (stereo not drawn)
dose: 9.5 mg/kg/injection, schedule: Q01DX009 (ip), vehicle: Klucel (hydroxypropylcellulose) (HPC)
  T/C: 96 % of control
dose: 9.5 mg/kg/injection, schedule: Q04DX003 (ip), vehicle: Klucel (hydroxypropylcellulose) (HPC)
  T/C: 95 % of control
dose: 19.0 mg/kg/injection, schedule: Q01DX009 (ip), vehicle: Klucel (hydroxypropylcellulose) (HPC)
  T/C: 96 % of control
dose: 19.0 mg/kg/injection, schedule: Q04DX003 (ip), vehicle: Klucel (hydroxypropylcellulose) (HPC)
  T/C: 95 % of control
dose: 38.0 mg/kg/injection, schedule: Q04DX003 (ip), vehicle: Klucel (hydroxypropylcellulose) (HPC)
  T/C: 100 % of control

## CC(O)C(=O)N1Cc2cc3ccccc3nc2C1 (stereo not drawn)
dose: 50.0 mg/kg/injection, schedule: Q01DX001 (ip), vehicle: saline sonified
  T/C: 95 % of control
dose: 100.0 mg/kg/injection, schedule: Q01DX001 (ip), vehicle: saline sonified
  T/C: 104 % of control
dose: 200.0 mg/kg/injection, schedule: Q01DX001 (ip), vehicle: saline sonified
  T/C: 95 % of control

## COc1cc(/C=N/N2CCCCC2)cc(OC)c1OC
[10]
  T/C: 100 % of control
[4]
  T/C: 100 % of control
[11]
  T/C: 90 % of control
[5]
  T/C: 100 % of control
dose: 400.0 mg/kg/injection, schedule: Q01DX009 (ip), vehicle: saline with Tween-80
  T/C: 100 % of control
[6]
  T/C: 90 % of control

## CC(=O)OC1(C)CC(C)(C)N=[N+]1[O-] (stereo not drawn)
dose: 12.5 mg/kg/injection, schedule: Q01DX005 (ip), vehicle: other
  T/C: 103 % of control
dose: 25.0 mg/kg/injection, schedule: Q01DX005 (ip), vehicle: other
  T/C: 103 % of control
dose: 50.0 mg/kg/injection, schedule: Q01DX005 (ip), vehicle: other
  T/C: 121 % of control
dose: 100.0 mg/kg/injection, schedule: Q01DX005 (ip), vehicle: other
  T/C: 103 % of control
dose: 200.0 mg/kg/injection, schedule: Q01DX005 (ip), vehicle: other
  T/C: 109 % of control

## CN(C)c1ccc(C(C[N+](=O)[O-])(c2ccc(N(C)C)cc2)c2ccc(N(C)C)cc2)cc1
[7]
  T/C: 100 % of control
[8]
  T/C: 90 % of control
[9]
  T/C: 100 % of control

## CCOC(=O)Nc1cc(NCC(=O)c2ccc(C(F)(F)F)cc2)c([N+](=O)[O-])c(N)n1
[12]
  T/C: 94 % of control
[13]
  T/C: 105 % of control
dose: 200.0 mg/kg/injection, schedule: Q01DX001 (ip), vehicle: saline with Tween-80
  T/C: 105 % of control

## COC(=O)C12OCC34C(CC(C(C)=O)C(C)(CC(=O)O)C3C(O)C1O)OC(=O)C(OC(=O)/C=C(\C)C(C)C)C24 (stereo not drawn)
dose: 0.25 mg/kg/injection, schedule: Q01DX009 (ip), vehicle: saline
  T/C: 94 % of control
dose: 0.5 mg/kg/injection, schedule: Q01DX009 (ip), vehicle: saline
  T/C: 92 % of control
dose: 2.0 mg/kg/injection, schedule: Q01DX009 (ip), vehicle: saline
  T/C: 92 % of control
dose: 4.0 mg/kg/injection, schedule: Q01DX009 (ip), vehicle: saline
  T/C: 90 % of control

## CC(=O)NC(O)C(Cl)(Cl)Cl (stereo not drawn)
[1]
  T/C: 91 % of control
[2]
  T/C: 108 % of control
[3]
  T/C: 100 % of control

## COC(=O)C1(C)CC2C(C)(CCC3(C)C4=CC=C5C(=CC(=O)C(O)=C5C)C4(C)CCC23C)CC1O (stereo not drawn)
dose: 25.0 mg/kg/injection, schedule: Q01DX001 (ip), vehicle: saline with Tween-80
  T/C: 109 % of control
[12]
  T/C: 91 % of control
[13]
  T/C: 104 % of control

## CCc1cc(O)c(Cl)c(C)c1Cl
dose: 50.0 mg/kg/injection, schedule: Q01DX009 (ip), vehicle: gum acacia
  T/C: 119 % of control
dose: 50.0 mg/kg/injection, schedule: Q04DX003 (ip), vehicle: gum acacia
  T/C: 111 % of control
dose: 100.0 mg/kg/injection, schedule: Q01DX009 (ip), vehicle: gum acacia
  T/C: 111 % of control
dose: 100.0 mg/kg/injection, schedule: Q04DX003 (ip), vehicle: gum acacia
  T/C: 100 % of control
dose: 200.0 mg/kg/injection, schedule: Q04DX003 (ip), vehicle: gum acacia
  T/C: 100 % of control

## O=C1CSC(c2ccccc2)N1c1nccs1 (stereo not drawn)
dose: 50.0 mg/kg/injection, schedule: Q01DX009 (ip), vehicle: saline with Tween-80
  T/C: 98 % of control
[10]
  T/C: 91 % of control
[11]
  T/C: 104 % of control

## CC#CC(=O)SCCNC(=O)CC
dose: 12.5 mg/kg/injection, schedule: Q04DX003 (ip), vehicle: saline with Tween-80
  T/C: 100 % of control
dose: 25.0 mg/kg/injection, schedule: Q04DX003 (ip), vehicle: saline with Tween-80
  T/C: 104 % of control
dose: 50.0 mg/kg/injection, schedule: Q04DX003 (ip), vehicle: saline with Tween-80
  T/C: 95 % of control and 100 % of control

## C=CC(CN1CC1)OC(C)=O (stereo not drawn)
dose: 2.0 mg/kg/injection, schedule: Q01DX010 (ip), vehicle: saline
  T/C: 112 % of control
dose: 4.0 mg/kg/injection, schedule: Q01DX010 (ip), vehicle: saline
  T/C: 163 % of control
dose: 8.0 mg/kg/injection, schedule: Q01DX010 (ip), vehicle: saline
  T/C: 181 % of control
dose: 16.0 mg/kg/injection, schedule: Q01DX010 (ip), vehicle: saline
  T/C: 166 % of control

## COc1ccc(-c2cc(=O)c3ccc4cc(OC)c(OC)cc4c3o2)cc1
dose: 1.56 mg/kg/injection, schedule: Q01DX009 (ip), vehicle: distilled water + Tween-80
  T/C: 102 % of control
dose: 3.13 mg/kg/injection, schedule: Q01DX009 (ip), vehicle: distilled water + Tween-80
  T/C: 86 % of control
dose: 6.25 mg/kg/injection, schedule: Q01DX009 (ip), vehicle: distilled water + Tween-80
  T/C: 87 % of control
dose: 12.5 mg/kg/injection, schedule: Q01DX009 (ip), vehicle: distilled water + Tween-80
  T/C: 89 % of control

From PubChem BioAssay AID328 (DTP/NCI, 2004)
